Test results published in US20230141101A1, “PDE4 INHIBITOR COMPOUND AND MEDICAL USE THEREOF” (Suzhou Longbotai Pharmaceuticals Co., Ltd., priority 2020, published 2023).

Legend:
Type in all cases: biochemical
PDE4B1 = biological target: T1, PDE4B1 (Homo sapiens, UniProt Q07343); assay: PDE4 inhibitory activity assay (FAM-cAMP enzymatic reaction), PDE4B1
T1 construct: purchased BPS 60041
Experimental: (§1) The compounds of the present disclosure were tested for their inhibitory activity (IC50 value) against PDE4A1A, PDE4B1, and PDE4D2.
(§2) Positive compound: Trequinsin (Sigma, Cat No. T20S7).
(§3) Instrument: Wallac Victor Muti-lable counter (Pekin Elmer) Steps of assay:
(§4) PDE enzymatic reaction; • 1) PDE was dissolved in 1× reaction solution to prepare 2× enzyme solution; • 2) FAM-cAMP was dissolved in 1× reaction solution to prepare 2× substrate solution; • 3) Corresponding volume of the compound in DMSO was transferred to the reaction plate through Echo 550; • 4) 2× enzyme solution was added into the corresponding wells of the reaction plate and incubated with the compound solution for 15 minutes at room temperature; • 5) 2× substrate solution was added into the corresponding well of the reaction plate to initiate the reaction; • 6) After the reaction plate was incubated at room temperature for 30 min, the reaction was terminated by adding reaction stopping solution. The reaction plate was incubated at room temperature for another 60 minutes;
(§5) Inhibition rates were calculated with Excel; and IC50 for each compound was calculated with Graphpad prism.

PDE4D2 = PDE4D2 (Homo sapiens, UniProt Q08499); assay: PDE4 inhibitory activity assay (FAM-cAMP enzymatic reaction), PDE4D2; details: for inhibitory activity against PDE4D2 compared with Apremilast and WX011: compared with Apremilast and Example 11 of WO2018036470 (WX011); for IC50: read-out: PDE4 D2 inhibitory activity (IC50 value)
Chain of PDE4D2 (Q08499 303-809): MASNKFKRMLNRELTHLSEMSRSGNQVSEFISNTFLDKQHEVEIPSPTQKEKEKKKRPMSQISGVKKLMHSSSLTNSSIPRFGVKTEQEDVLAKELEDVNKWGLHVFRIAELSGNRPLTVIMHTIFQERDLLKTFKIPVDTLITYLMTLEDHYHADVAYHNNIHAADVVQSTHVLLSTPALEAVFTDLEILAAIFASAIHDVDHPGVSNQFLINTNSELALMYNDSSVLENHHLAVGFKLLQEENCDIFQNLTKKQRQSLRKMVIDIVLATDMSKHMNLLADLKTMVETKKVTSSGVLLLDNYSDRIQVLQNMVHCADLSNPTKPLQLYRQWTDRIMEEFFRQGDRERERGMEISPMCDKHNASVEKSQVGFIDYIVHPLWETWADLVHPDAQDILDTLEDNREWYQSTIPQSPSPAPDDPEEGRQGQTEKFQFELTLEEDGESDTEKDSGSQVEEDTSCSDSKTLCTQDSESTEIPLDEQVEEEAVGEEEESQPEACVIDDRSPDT
Experimental: as §1, §2, §3, §4, §5

PDE4A1A = biological target: T2, PDE4A1A (Homo sapiens, UniProt P27815); assay: PDE4 inhibitory activity assay (FAM-cAMP enzymatic reaction), PDE4A1A; details: for inhibitory activity against PDE4A1A compared with Apremilast and WX011: compared with Apremilast and Example 11 of WO2018036470 (WX011)
T2 construct: purchased BPS 60040
T2 sequence (P27815 1-647 isoform P27815-4): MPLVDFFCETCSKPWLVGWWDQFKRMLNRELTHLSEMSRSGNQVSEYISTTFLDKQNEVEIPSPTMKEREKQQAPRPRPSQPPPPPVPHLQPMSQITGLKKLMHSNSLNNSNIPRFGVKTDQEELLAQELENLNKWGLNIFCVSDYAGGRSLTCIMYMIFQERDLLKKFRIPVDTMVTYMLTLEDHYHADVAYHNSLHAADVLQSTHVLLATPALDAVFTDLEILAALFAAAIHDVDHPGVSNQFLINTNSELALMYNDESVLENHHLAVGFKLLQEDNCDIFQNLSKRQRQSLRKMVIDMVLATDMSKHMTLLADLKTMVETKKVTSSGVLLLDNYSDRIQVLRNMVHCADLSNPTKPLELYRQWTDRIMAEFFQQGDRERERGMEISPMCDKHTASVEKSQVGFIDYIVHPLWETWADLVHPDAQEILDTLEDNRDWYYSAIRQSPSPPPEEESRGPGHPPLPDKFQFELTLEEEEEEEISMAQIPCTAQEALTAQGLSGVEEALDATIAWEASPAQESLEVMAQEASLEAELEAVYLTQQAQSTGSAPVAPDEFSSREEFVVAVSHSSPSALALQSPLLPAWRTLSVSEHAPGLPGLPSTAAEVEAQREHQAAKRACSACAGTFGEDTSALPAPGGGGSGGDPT
Experimental: as §1, §2, §3, §4, §5

T1 sequence (Q07343 whole entry): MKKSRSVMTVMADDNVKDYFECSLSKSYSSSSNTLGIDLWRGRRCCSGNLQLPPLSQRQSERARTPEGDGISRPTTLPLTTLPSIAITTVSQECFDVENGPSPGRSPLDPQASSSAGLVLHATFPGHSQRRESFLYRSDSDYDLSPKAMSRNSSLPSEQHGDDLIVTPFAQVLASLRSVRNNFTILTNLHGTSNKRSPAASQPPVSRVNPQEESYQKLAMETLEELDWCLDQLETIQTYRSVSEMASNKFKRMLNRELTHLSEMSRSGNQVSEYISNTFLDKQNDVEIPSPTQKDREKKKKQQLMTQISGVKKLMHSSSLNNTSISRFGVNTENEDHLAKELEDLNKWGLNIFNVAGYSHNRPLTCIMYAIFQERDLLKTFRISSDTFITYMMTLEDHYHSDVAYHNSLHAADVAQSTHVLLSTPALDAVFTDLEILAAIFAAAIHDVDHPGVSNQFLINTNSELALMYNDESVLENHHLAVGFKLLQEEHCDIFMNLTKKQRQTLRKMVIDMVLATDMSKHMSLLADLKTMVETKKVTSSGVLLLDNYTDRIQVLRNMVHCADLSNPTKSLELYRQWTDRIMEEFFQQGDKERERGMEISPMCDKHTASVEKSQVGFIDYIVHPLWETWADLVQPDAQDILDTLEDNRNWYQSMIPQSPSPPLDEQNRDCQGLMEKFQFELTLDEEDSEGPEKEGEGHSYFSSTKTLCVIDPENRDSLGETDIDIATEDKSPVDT

Row | Structure (SMILES) | PDE4 B1 inhibitory effect at 20 nM (PDE4B1) | PDE4 D2 inhibitory effect at 20 nM (PDE4D2) | PDE4 A1 inhibitory effect at 20 nM (PDE4A1A) | IC50 (PDE4D2) [nM] | further results
1 | CCOc1nc([C@@H](CS(C)(=O)=O)n2c(=O)n(CC(F)F)c3c(C)c(-c4ccccc4)cnc32)ccc1OC [Ex. 57, (S)-1-(2,2-difluoroethyl)-3-(1-(6-ethoxy-5-methoxypyridin-2-yl)-2-(methylsulfonyl)ethyl)-7-methyl-6-phenyl-1H-imidazo[4,5-b]pyridin-2(3H)-one] | + | + | + | – | –
2 | CCOc1nc([C@@H](CS(C)(=O)=O)n2c(=O)[nH]c3c(C)c(-c4ccccc4OC)cnc32)ccc1OC [Ex. 12, (S)-3-(1-(6-ethoxy-5-methoxypyridin-2-yl)-2-(methylsulfonyl)ethyl)-6-(2-methoxyphenyl)-7-methyl-1H-imidazo[4,5-b]pyridin-2(3H)-one] | – | – | – | 3.2 | inhibitory activity against PDE4B1 compared with Apremilast and WX011 (PDE4B1; compared with Apremilast and Example 11 of WO2018036470 (WX011)): significantly enhanced inhibitory activity; inhibitory activity against PDE4D2 compared with Apremilast and WX011 (PDE4D2): significantly enhanced inhibitory activity; inhibitory activity against PDE4A1A compared with Apremilast and WX011 (PDE4A1A): significantly enhanced inhibitory activity
3 | CCOc1nc([C@@H](CS(C)(=O)=O)n2c(=O)[nH]c3c(C)c(-c4ccccc4)cnc32)ccc1OC(F)F [Ex. 61, (S)-3-(1-(5-(difluoromethoxy)-6-ethoxypyridin-2-yl)-2-(methylsulfonyl)ethyl)-7-methyl-6-phenyl-1H-imidazo[4,5-b]pyridin-2(3H)-one] | + | + | + | – | –
4 | CCOc1nc([C@@H](CS(C)(=O)=O)n2c(=O)n(C)c3c(C)c(-c4ccccc4C)cnc32)ccc1OC(F)F [Ex. 68, (S)-3-(1-(5-(difluoromethoxy)-6-ethoxypyridin-2-yl)-2-(methylsulfonyl)ethyl)-1,7-dimethyl-6-(o-methylphenyl)-1H-imidazo[4,5-b]pyridin-2(3H)-one] | + | + | + | – | –
5 | CCOc1nc([C@@H](CS(C)(=O)=O)n2c(=O)[nH]c3c(C)c(-c4ccccc4F)cnc32)ccc1OC [Ex. 2, (S)-3-(1-(6-ethoxy-5-methoxypyridin-2-yl)-2-(methylsulfonyl)ethyl)-6-(2-fluorophenyl)-7-methyl-1H-imidazo[4,5-b]pyridin-2(3H)-one] | – | – | – | 3.4 | inhibitory activity against PDE4D2 compared with Apremilast and WX011 (PDE4D2): significantly enhanced inhibitory activity; inhibitory activity against PDE4A1A compared with Apremilast and WX011 (PDE4A1A): significantly enhanced inhibitory activity
6 | CCOc1nc([C@H](CS(C)(=O)=O)n2c(=O)[nH]c3c(C)c(-c4ccccc4C)cnc32)ccc1OC [Ex. 9, (R)-3-(1-(6-ethoxy-5-methoxypyridin-2-yl)-2-(methylsulfonyl)ethyl)-7-methyl-6-(o-methylphenyl)-1H-imidazo[4,5b]pyridin-2(3H)-one] | – | – | – | 318 | –
7 | CCOc1nc([C@@H](CS(C)(=O)=O)n2c(=O)[nH]c3c(C)c(-c4ccc(C)cc4C)cnc32)ccc1OC [Ex. 31, (S)-6-(2,4-dimethylphenyl)-3-(1-(6-ethoxy-5-methoxypyridin-2-yl)-2-(methylsulfonyl)ethyl)-7-methyl-1H-imidazo[4,5-b]pyridin-2(3H)-one] | – | – | – | 4.1 | –
8 | CCOc1nc([C@H](CS(C)(=O)=O)n2c(=O)[nH]c3c(C)c(-c4ccccc4F)cnc32)ccc1OC [Ex. 3, (R)-3-(1-(6-ethoxy-5-methoxypyridin-2-yl)-2-(methylsulfonyl)ethyl)-6-(2-fluorophenyl)-7-methyl-1H-imidazo[4,5-b]pyridin-2(3H)-one] | – | – | – | 415 | –
9 | CCOc1nc([C@H](CS(C)(=O)=O)n2c(=O)[nH]c3c(C)c(-c4ccccc4OC)cnc32)ccc1OC [Ex. 13, (R)-3-(1-(6-ethoxy-5-methoxypyridin-2-yl)-2-(methylsulfonyl)ethyl)-6-(2-methoxyphenyl)-7-methyl-1H-imidazo[4,5-b]pyridin-2(3H)-one] | – | – | – | 396 | –
10 | CCOc1nc([C@@H](CS(C)(=O)=O)n2c(=O)[nH]c3c(C)c(-c4ccccc4)cnc32)ccc1OC [Ex. 4, (S)-3-(1-(6-ethoxy-5-methoxypyridin-2-yl)-2-(methylsulfonyl)ethyl)-7-methyl-6-phenyl-1H-imidazo[4,5-b]pyridin-2(3H)-one] | – | – | – | 8.5 | –

Second part, led by results:

Row | PDE4 B1 inhibitory effect at 20 nM (PDE4B1) | PDE4 D2 inhibitory effect at 20 nM (PDE4D2) | PDE4 A1 inhibitory effect at 20 nM (PDE4A1A) | IC50 (PDE4D2) [nM] | Structure (SMILES) | further results
11 | + | + | + | – | CCOc1nc([C@@H](CS(C)(=O)=O)n2c(=O)n(C)c3cc(-c4cc(F)ccc4F)cnc32)ccc1OC [Ex. 93, (S)-6-(2,5-difluorophenyl)-3-(1-(6-ethoxy-5-methoxypyridin-2-yl)-2-(methylsulfonyl)ethyl)-1-methyl-1H-imidazo[4,5-b]pyridin-2(3H)-one] | –
12 | + | + | + | – | CCOc1nc([C@@H](CS(C)(=O)=O)n2c(=O)[nH]c3cc(-c4cc(C)ccc4F)ccc32)ccc1OC [Ex. 175, (S)-5-(2-fluoro-5-methylphenyl)-1-(1-(6-ethoxy-5-methoxypyridin-2-yl)-2-(methylsulfonyl)ethyl)-1H-benzo[d]imidazol-2(3H)-one] | –
13 | + | + | + | – | CCOc1nc([C@@H](CS(C)(=O)=O)n2c(=O)[nH]c3cc(-c4cc(F)ccc4F)ccc32)ccc1OC [Ex. 160, (S)-5-(2,5-difluorophenyl)-1-(1-(6-ethoxy-5-methoxypyridin-2-yl)-2-(methylsulfonyl)ethyl)-1H-benzo[d]imidazol-2(3H)-one] | –
14 | + | + | + | – | CCOc1nc([C@@H](CS(C)(=O)=O)n2c(=O)[nH]c3cc(-c4cccc(F)c4C)cnc32)ccc1OC [Ex. 111, (S)-6-(3-fluoro-2-methylphenyl)-3-(1-(6-ethoxy-5-methoxypyridin-2-yl)-2-(methylsulfonyl)ethyl)-1H-imidazo[4,5-b]pyridin-2(3H)-one] | –
15 | – | – | – | 4.7 | CCOc1nc([C@@H](CS(C)(=O)=O)n2c(=O)[nH]c3cc(-c4ccccc4C)cnc32)ccc1OC [Ex. 79, (S)-3-(1-(6-ethoxy-5-methoxypyridin-2-yl)-2-(methylsulfonyl)ethyl)-6-(o-methylphenyl)-1H-imidazo[4,5-b]pyridin-2(3H)-one] | –
16 | – | – | – | 6.8 | CCOc1nc([C@@H](CS(C)(=O)=O)n2c(=O)n(C)c3cc(-c4ccccc4C)cnc32)ccc1OC [Ex. 80, (S)-3-(1-(6-ethoxy-5-methoxypyridin-2-yl)-2-(methylsulfonyl)ethyl)-1-methyl-6-(o-methylphenyl)-1H-imidazo[4,5-b]pyridin-2(3H)-one] | –
17 | – | – | – | 3.7 | CCOc1nc([C@@H](CS(C)(=O)=O)n2c(=O)[nH]c3c(C)c(-c4cc(F)ccc4F)cnc32)ccc1OC [Ex. 27, (S)-6-(2,5-difluorophenyl)-3-(1-(6-ethoxy-5-methoxypyridin-2-yl)-2-(methylsulfonyl)ethyl)-7-methyl-1H-imidazo[4,5-b]pyridin-2(3H)-one] | –
18 | – | – | – | 3.4 | CCOc1nc([C@@H](CS(C)(=O)=O)n2c(=O)[nH]c3c(C)c(-c4ccc(F)cc4C)cnc32)ccc1OC [Ex. 35, (S)-6-(4-fluoro-2-methylphenyl)-3-(1-(6-ethoxy-5-methoxypyridin-2-yl)-2-(methylsulfonyl)ethyl)-7-methyl-1H-imidazo[4,5-b]pyridin-2(3H)-one] | –
